# Results: patent US6492427B2, “Methods for treating multiple sclerosis” (priority 1998, dated 2002)
# Tests used:
# Type in all cases: cell-based, rat
# [1] = tested on: ASTs; assay: Methylene blue counts of individual cell types: ASTs; conditions: BM-D9, 24 h
# Procedure: (§1) Methylene blue (3,7-bis (dimethylamino)-phenothiazin-5-ium chloride), a ribonucleic acid (RNA) binding agent commonly used as an alternative nucleic acid stain, can also be used as a biological staining agent to stain cells in order to observe their morphological features. At 24 h, cells were fixed in 2% paraformaldehyde for 15 min at room temperature. Briefly, cells were washed twice with PBS and 100 μl of 1% methylene blue (Mallinckrodt Chemical Co., MO, USA) solution containing 1% AgNO3 was added for 10 min to the wells containing coverslips. Subsequently, the coverslips were washed with two changes of distilled water and absolute ethanol, cleared with xylene and mounted on slides with permount.
# (§2) Cell counts were performed for 25 randomly chosen 100 power fields on each coverslip. Two randomly generated coordinates drawn from a uniform distribution of random numbers specified the center of each field. The random numbers were generated on a computer by using Microcal Origin 4.0 program. […] Three coverslips was counted for each treatment condition. In subsequent experiments, different cell types (for example, O-2A progenitors, PROLs, OLs and astrocytes) were morphologically identified on each field and were counted separately for experimental series-I and II. […]
# [2] = tested on: PROLs; assay: Methylene blue counts of individual cell types: PROLs; conditions: BM-D9, 24 h
# Procedure: as §1, §2
# [3] = tested on: oligodendroglial cells; assay: In situ DNA end labeling (ApopTag), counts of apoptotic nuclei; conditions: 6, 12, 15, 18, 24 h, both experimental series
# Procedure: The ApopTag™ method utilizes an ApopTag™ in situ apoptosis detection kit (Oncor, Md., USA), which detects nuclei with, cut 3′-OH ends of DNA. Oligodendrocytes at 16 DIV were treated with BM, BM-D9, IM and IM-D9 for 6, 12, 15, 18 and 24 h. Cells were fixed in 2% paraformaldehyde, followed by three washes in 0.1M PBS and permeabilization with 0.05% Tween-20 in PBS for 10 min at room temperature. Endogenous peroxidase was quenched with 1% H2O2 in PBS for 5 min at room temperature. Coverslips were then covered with 1 X equilibration buffer for 30 min at room temperature and then incubated with terminal deoxynucleotidyl transferase (TdT)/reaction buffer (76 μl of reaction buffer+32 μl of TdT enzyme) for 1 h at 37° C. A stop wash buffer incubation for 30 min at 37° C. was used to terminate the 3′-OH DNA extension reaction. After a PBS wash, the coverslips were incubated with antidigoxigenin peroxidase antibody. After three washes with 0.1M PBS, chromogenic detection was carried out using DAB (1.5 mg/ml) mixed with hydrogen peroxide (H2O2; 0.02% v/v) yielding a brown reaction product. Coverslips were dehydrated in ascending grade alcohol series, cleared with xylene and mounted on slides using a drop of permount. ApopTag™ positive nuclei were randomly counted in triplicate (described in section 2.5), for each of the time points, for experimental series-I and II.
smiles,measurement,setting,value
"C#CCN(C)[C@H](C)Cc1ccccc1 [(−)-deprenyl, R-(−)-N,α-Dimethyl-N-2-propynyl phenethylamine]",AST cell numbers compared to those in BM,[1]; experimental series II,132%
same,AST cell numbers compared to those in BM,[1]; experimental series-I,570%
same,PROL cell numbers compared to those in BM,[2]; experimental series II,275%
same,PROL cell numbers compared to those in BM,[2]; experimental series-I,739.2%
same,number of ApopTag positive nuclei,[3]; 10^−9 M added to IM,did not significantly change the number of ApopTag™ positive nuclei
same,number of ApopTag positive nuclei,[3]; 10^−9 M added to base media (BM),significantly decreased the numbers of ApopTag™ nuclei in both experimental series
same,number of ApopTag positive nuclei,"[3]; 10^−9 M added to base media (BM), listed as (−)-Deprenyl",reduced the incidence of apoptotic nuclei at all the time points
